Test results published in patent US10689413B2, “Composition enriched in single isomer of NUC-1031 and preparation method and use thereof” (BrightGene Bio-Medical Technology Co., Ltd., priority 2015, dated 2020).
“Also recorded” adds a separate entry of the source.

Columns and labels:
[1] = system: OVCAR-3 tumor cells; test: Tumor cell proliferation in vitro, CTG method, OVCAR-3; assay type: cell-based; conditions: OVCAR-3, 96 hours; for IC50: Homo sapiens
Method: (§1) The 50% inhibitory concentrations (IC50) for the cell proliferation of the compound Sp-1, the compound Rp-1 and NUC-1031 in BxPC-3, MIA PaCa-2 and OVCAR-3 tumor cell lines were measured using the CTG method.
(§2) Cells in an exponential growth phase were collected and the viable cells were counted using a Vi-Cell XR cell counter. The cell suspension was adjusted to 3.33×10^4/ml or 5.56×10^4/ml with culture media corresponding to the respective cells. 90 μl of cell suspension was added to each well of a 96-well cell culture plate, and the final cell concentrations of BxPC-3 and MIA PaCa-2 were 3000 cells/well and the final cell concentration of OVCAR-3 was 5000 cells/well. Each test compound was dissolved in DMSO to become 10 mM stock solutions. 3.16× serial dilutions were prepared by the stock solutions and DMSO. Then the dilutions were respectively diluted 100 times with the culture media. Finally, to each well of the respective cell lines was added 10 μl of the corresponding 10-fold solution, triplicate wells were set up for each drug concentration (see the methods for formulating the compounds and the design of sample adding: the plate map for IC50 determination); for the concentration ranges of the test compounds and the reference compounds used for the final tests, please see the methods for formulating the compounds and the design of sample adding on the following pages: the test compounds and the reference compounds were diluted, and the final concentration of DMSO in each well was 0.1%. The cells were placed in an incubator at 37° C. with 5% CO2 to be cultured for 72 hours (BxPC-3, MIA PaCa-2) or 96 hours (OVCAR-3). After 72 or 96 hours of drug treatment, 50 μl (½ culture volume) of CTG solution, which had been melted and equilibrated to room temperature in advance was added to each well according to the operating instruction of CTG; the mixtures were mixed evenly for 2 minutes with a microwell plate shaker, placed at room temperature for 10 minutes, and then an Envision 2104 plate reader was used to measure the values of the […] signals.
(§3) Cell viability was calculated with the formula: Vsample/Vvehicle control×100%, wherein Vsample is the reading of the treatment group and Vvehicle control is the average value of the vehicle control group. Non-linear regression model was used to plot the S-shape dose-survival rate curves and calculate the IC50 values using GraphPad Prism 5.0 software.

[2] = system: BxPC-3 tumor cells; test: Tumor cell proliferation in vitro, CTG method, BxPC-3; assay type: cell-based; conditions: BxPC-3, 72 hours; for IC50: Homo sapiens
Method: as §1, §2, §3

[3] = system: MIA PaCa-2 human pancreatic cancer subcutaneous xenograft; test: Pharmacodynamic evaluation in human pancreatic cancer subcutaneous xenograft mouse model; assay type: in vivo, BALB/c nude mice; conditions: for Relative tumor inhibition rate TGI: 0.19 mmoL/kg i.p. twice a week for 4 consecutive weeks (gemcitabine 50 mg/kg, others 110 mg/kg)
Method: Cell Culture: MIA PaCa-2 cells were cultured in a DMEM culture medium containing 10% fetal bovine serum and 2.5% HS. MIA PaCa-2 cells in an exponential growth phase were collected and resuspended in PBS to a suitable concentration for the subcutaneous tumor inoculation in nude mice.
Animal modeling and Grouping: BALB/c nude mice, female, 6 to 8 weeks old (the predicted weeks of age of the mice when being inoculated with tumor cells), 18 to 22 g, purchased from Shanghai Lingchang Biological Technology Co., LTD. A total of 52 mice (40 plus 30% surplus) were required. After grouping, there were 5 groups in total, each group having 8 mice. All experimental mice were raised in a barrier system and adapted to the environment for at least 7 days in advance. Each mice was subcutaneously inoculated with 3×10^6 MIA PaCa-2 cells on the right back and the cells were resuspended in PBS and matrigel (1:1) (0.1 ml/mice); the tumor growth was observed regularly, and when the tumor volumes reached an average size of 150 to 200 mm^3, the mice were randomly divided into groups according to the size of tumor and body weight of the mice, and the drugs were administered.
Relative tumor inhibition rate TGI(%): TGI %=(1−T/C)×100%. T/C % is the relative tumor growth rate, which is the percentage of the relative tumor volume or tumor weight of the treatment groups with respect to the control group at a certain timepoint. T and C are the relative tumor volume (RTV) or tumor weight (TW), respectively, of the treatment groups and the control group at a particular timepoint.
The calculation formula is as follows: T/C %=TRTV/CRTV×100% (TRTV: the average RTV of a treatment group; CRTV: the average RTV of the vehicle control group; RTV=Vt/V0, V0 is the tumor volume of an animal at the time of grouping, Vt is the tumor volume of an animal after treatment). Or T/C %=TTW/CTW×100% (TTW: the average tumor weight of a treatment group at the end of the experiment; CTW: the average tumor weight of the vehicle control group at the end of the experiment).

[4] = system: BxPC-3, MIA PaCa-2 and OVCAR-3 tumor cells; test: Tumor cell proliferation in vitro, summary over the three cell lines; assay type: cell-based; conditions: for IC50: span over BxPC-3, MIA PaCa-2 and OVCAR-3, read-out: IC50 values (cytotoxic effect)
Method: as §1, §2, §3

[5] = system: MIA PaCa-2 tumor cells; test: Tumor cell proliferation in vitro, CTG method, MIA PaCa-2; assay type: cell-based, human; conditions: MIA PaCa-2, 72 hours; for IC50: Homo sapiens
Method: as §1, §2, §3

| Compound | IC50 [1] [nM] | Max inh. [1] [%] | Max inh. [2] [%] | IC50 [2] [nM] | Relative tumor inhibition rate TGI [3] [%] | in vivo antitumor activity, comparison in words ([3]; equimolar dose, i.p., BIW x 4) | IC50 [4] [nM] | inhibitory effect on the proliferation activity of tumor cells in vitro relative to compound Rp-1 ([4]; versus compound Rp-1) | IC50 [5] [nM] | Max inh. [5] [%] |
| --- | --- | --- | --- | --- | --- | --- | --- | --- | --- | --- |
| C[C@H](N[P@](=O)(OC[C@H]1O[C@@H](n2ccc(N)nc2=O)C(F)(F)[C@@H]1O)Oc1ccccc1)C(=O)OCc1ccccc1 [Compound Sp-1] | 0.013 | 58.22 | 66.48 | 0.045 | 79 | better in vivo anti-tumor activity than the compound Rp-1; also recorded: better in vivo antitumor activity as compared with gemcitabine and the compound Rp-1 | 0.01 to 1 | about 10 times | 0.012 | 71 |
| C[C@H](N[P@@](=O)(OC[C@H]1O[C@@H](n2ccc(N)nc2=O)C(F)(F)[C@@H]1O)Oc1ccccc1)C(=O)OCc1ccccc1 [Compound Rp-1] | 0.167 | 54.19 | 61.54 | 0.554 | 22 |  | 0.01 to 1 |  | 0.126 | 69.2 |
| Nc1ccn([C@@H]2O[C@H](CO)[C@@H](O)C2(F)F)c(=O)n1 [Gemcitabine, reference compound] |  |  |  |  | 55 |  |  |  |  |  |
| C[C@H](NP(=O)(OC[C@H]1O[C@@H](n2ccc(N)nc2=O)C(F)(F)[C@@H]1O)Oc1ccccc1)C(=O)OCc1ccccc1 (stereo partly drawn) [NUC-1031] | 0.095 | 56.3 | 65.82 | 0.263 | 54 |  | 0.01 to 1 |  | 0.063 | 65.03 |
